Measurements from PMC6199744, “Development of Chemical Proteomics for the Folateome and Analysis of the Kinetoplastid Folateome” (ACS Infectious Diseases, 2018).
Where two headings read alike, the source gives them in different places.

How the values were obtained:
Assay type in all cases: binding
[1] = biological target: T1, HeLa cell extract proteins (Homo sapiens, UniProt P49748)
T1 construct: endogenous in cells; host or cells: HeLa cell extract
T1 sequence (P49748 41-655): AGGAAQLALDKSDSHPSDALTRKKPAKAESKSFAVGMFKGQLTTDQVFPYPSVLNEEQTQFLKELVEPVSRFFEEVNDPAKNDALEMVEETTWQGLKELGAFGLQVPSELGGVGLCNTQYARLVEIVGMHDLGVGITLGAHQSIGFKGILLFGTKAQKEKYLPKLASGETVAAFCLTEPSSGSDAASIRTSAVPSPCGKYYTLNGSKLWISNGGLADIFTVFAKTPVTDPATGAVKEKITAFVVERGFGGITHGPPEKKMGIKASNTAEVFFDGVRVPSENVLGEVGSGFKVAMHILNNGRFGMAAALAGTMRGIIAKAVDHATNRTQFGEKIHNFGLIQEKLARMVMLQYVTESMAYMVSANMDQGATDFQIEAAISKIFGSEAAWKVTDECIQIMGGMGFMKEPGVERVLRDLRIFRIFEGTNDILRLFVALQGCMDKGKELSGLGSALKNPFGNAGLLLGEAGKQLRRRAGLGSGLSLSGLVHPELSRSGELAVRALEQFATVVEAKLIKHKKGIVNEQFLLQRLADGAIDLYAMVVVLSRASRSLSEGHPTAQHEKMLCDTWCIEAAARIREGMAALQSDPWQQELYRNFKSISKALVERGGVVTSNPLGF

[2] = biological target: T2, HeLa cell extract proteins (Homo sapiens, UniProt Q16658)
T2 construct: endogenous in cells; host or cells: HeLa cell extract

[3] = biological target: T3, HeLa cell extract proteins (Homo sapiens, UniProt Q96PK6)
T3 construct: endogenous in cells; host or cells: HeLa cell extract
T3 sequence (Q96PK6 1-669): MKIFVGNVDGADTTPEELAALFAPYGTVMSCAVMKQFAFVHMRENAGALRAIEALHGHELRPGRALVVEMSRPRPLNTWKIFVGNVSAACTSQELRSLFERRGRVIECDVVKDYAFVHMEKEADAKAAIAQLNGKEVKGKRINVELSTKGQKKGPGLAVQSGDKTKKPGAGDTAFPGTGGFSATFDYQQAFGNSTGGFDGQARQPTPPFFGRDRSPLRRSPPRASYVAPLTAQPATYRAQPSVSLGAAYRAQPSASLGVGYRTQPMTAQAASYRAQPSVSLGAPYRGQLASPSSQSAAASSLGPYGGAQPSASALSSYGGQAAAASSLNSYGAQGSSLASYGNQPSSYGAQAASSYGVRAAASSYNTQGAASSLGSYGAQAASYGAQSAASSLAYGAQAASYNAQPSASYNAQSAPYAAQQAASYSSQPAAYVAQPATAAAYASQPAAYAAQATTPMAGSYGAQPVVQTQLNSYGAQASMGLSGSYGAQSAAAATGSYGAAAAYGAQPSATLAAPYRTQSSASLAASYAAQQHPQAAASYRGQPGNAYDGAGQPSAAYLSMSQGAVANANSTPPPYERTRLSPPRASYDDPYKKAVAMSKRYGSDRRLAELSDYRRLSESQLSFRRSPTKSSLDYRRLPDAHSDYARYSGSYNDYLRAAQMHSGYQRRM

[4] = biological target: T4, HeLa cell extract proteins (Homo sapiens, UniProt Q9UJX4)
T4 construct: endogenous in cells; host or cells: HeLa cell extract
T4 sequence (Q9UJX4 whole entry): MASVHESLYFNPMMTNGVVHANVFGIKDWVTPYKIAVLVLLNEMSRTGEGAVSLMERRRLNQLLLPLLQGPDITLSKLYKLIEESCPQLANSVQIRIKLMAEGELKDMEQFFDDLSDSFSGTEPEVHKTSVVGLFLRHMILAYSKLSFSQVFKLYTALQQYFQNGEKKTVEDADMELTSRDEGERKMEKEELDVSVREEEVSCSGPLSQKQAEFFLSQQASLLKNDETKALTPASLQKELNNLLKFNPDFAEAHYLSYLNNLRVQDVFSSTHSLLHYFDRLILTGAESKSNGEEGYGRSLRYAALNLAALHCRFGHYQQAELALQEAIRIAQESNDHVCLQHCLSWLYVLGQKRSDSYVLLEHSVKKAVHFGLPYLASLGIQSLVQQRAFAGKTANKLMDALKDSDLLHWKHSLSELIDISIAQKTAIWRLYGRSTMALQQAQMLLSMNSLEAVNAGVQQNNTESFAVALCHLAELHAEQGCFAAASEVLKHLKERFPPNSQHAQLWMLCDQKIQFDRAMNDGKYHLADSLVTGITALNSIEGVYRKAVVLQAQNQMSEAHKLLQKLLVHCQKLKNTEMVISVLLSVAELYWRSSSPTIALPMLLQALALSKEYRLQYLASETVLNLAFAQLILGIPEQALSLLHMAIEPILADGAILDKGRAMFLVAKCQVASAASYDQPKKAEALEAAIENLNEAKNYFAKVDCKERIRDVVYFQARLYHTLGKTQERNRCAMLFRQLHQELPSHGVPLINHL

[5] = biological target: T5, HeLa cell extract proteins (Homo sapiens, UniProt P17858)
T5 construct: endogenous in cells; host or cells: HeLa cell extract
T5 sequence (P17858 1-780): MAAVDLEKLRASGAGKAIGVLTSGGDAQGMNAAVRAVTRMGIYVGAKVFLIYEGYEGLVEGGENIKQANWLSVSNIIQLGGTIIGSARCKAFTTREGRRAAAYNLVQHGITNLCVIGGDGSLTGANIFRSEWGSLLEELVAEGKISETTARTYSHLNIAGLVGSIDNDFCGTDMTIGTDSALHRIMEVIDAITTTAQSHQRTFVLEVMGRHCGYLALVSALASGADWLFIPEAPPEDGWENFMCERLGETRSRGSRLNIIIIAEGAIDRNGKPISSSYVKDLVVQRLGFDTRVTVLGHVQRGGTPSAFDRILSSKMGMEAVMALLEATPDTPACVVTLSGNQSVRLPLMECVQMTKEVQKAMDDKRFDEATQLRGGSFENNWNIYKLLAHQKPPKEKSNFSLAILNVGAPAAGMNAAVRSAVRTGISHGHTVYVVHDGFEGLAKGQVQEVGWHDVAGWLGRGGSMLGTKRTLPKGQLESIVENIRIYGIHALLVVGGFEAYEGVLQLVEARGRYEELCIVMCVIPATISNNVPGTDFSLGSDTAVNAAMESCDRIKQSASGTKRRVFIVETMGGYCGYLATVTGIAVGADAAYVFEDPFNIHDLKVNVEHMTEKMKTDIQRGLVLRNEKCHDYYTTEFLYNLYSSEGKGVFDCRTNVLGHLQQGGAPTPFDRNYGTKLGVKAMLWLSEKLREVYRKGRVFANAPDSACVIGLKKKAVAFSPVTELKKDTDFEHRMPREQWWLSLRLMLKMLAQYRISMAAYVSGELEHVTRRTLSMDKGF

[6] = biological target: T6, HeLa cell extract proteins (Homo sapiens, UniProt Q96DE0)
T6 construct: endogenous in cells; host or cells: HeLa cell extract
T6 sequence (Q96DE0 whole entry): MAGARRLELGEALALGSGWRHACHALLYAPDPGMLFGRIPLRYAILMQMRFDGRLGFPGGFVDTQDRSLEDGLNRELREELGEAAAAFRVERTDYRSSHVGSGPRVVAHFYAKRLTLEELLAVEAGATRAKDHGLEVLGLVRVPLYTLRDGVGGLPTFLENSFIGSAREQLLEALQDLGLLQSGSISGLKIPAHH

[7] = biological target: T7, HeLa cell extract proteins (Homo sapiens, UniProt P00441)
T7 construct: endogenous in cells; host or cells: HeLa cell extract
T7 sequence (P00441 whole entry): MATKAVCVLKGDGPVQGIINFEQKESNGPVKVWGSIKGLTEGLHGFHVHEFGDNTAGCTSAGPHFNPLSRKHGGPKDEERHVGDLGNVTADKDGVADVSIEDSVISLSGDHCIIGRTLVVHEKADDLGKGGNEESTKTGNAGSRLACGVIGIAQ

[8] = biological target: T8, HeLa cell extract proteins (Homo sapiens, UniProt Q15365)
T8 construct: endogenous in cells; host or cells: HeLa cell extract
T8 sequence (Q15365 whole entry): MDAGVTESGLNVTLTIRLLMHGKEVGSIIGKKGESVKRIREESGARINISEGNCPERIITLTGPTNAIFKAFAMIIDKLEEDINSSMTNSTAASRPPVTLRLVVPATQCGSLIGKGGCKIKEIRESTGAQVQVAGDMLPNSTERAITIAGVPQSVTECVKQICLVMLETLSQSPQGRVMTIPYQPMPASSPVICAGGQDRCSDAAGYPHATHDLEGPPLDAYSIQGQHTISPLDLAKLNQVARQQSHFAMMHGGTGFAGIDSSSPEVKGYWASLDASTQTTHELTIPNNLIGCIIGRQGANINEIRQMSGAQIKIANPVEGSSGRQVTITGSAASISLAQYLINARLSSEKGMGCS

SMILES | fold changes relative to vehicle control ([1]; protein ACADVL, HeLa) | fold changes relative to vehicle control ([2]; protein FSCN1, HeLa) | fold changes relative to vehicle control ([3]; captured protein RBM14, HeLa) | fold changes relative to vehicle control ([4]; captured protein ANAPC5, HeLa) | fold changes relative to vehicle control ([5]; captured protein PFKL, HeLa) | fold changes relative to vehicle control ([6]; captured protein NUDT16, HeLa) | fold changes relative to vehicle control ([7]; protein SOD1, HeLa) | fold changes relative to vehicle control ([8]; protein PCBP1, HeLa) | fold changes relative to vehicle control ([1]; HeLa, protein ACADVL) | fold changes relative to vehicle control ([3]; HeLa, captured protein RBM14) | fold changes relative to vehicle control ([4]; HeLa, captured protein ANAPC5) | fold changes relative to vehicle control ([5]; HeLa, protein PFKL) | fold changes relative to vehicle control ([6]; HeLa, captured protein NUDT16) | fold changes relative to vehicle control ([7]; HeLa, protein SOD1) | fold changes relative to vehicle control ([8]; HeLa, protein PCBP1) | other results
Nc1nc2cccc(-c3ccccc3)c2n1Cc1ccc(Cl)c(Cl)c1 [compound 3] | 0.91 | 0.96 | 0.87 | 1.07 | 1.07 | 1.02 | 0.8 | 0.94 | – | – | – | – | – | – | – | –
CCCCCCOc1ccc(Cc2cnc(N)nc2N)cc1 [compound 1] | 0.96 | 1.28 | 0.72 | 1.06 | 0.92 | 0.62 | 1.47 | 1.02 | – | – | – | – | – | – | – | –
NCCCNc1ccc(C(=O)NC(CCC(=O)O)C(=O)O)cc1 (centres unmarked) [compound 7] | – | 0.78 | – | – | – | – | – | – | 0.97 | 1.1 | 1.1 | 1.07 | 1.02 | 1.08 | 0.91 | –
CCCCCCOc1cccc(Cc2cnc(N)nc2N)c1 [compound 2] | 1.29 | 1.96 | 1 | 1 | 0.96 | 0.93 | 2.11 | 1.08 | – | – | – | – | – | – | – | –
NCCOCCOCC(=O)Nc1nc2ncc(CNc3ccc(C(=O)NC(CCC(=O)O)C(=O)O)cc3)nc2c(=O)[nH]1 (centres unmarked) [compound 6] | – | 1.42 | – | – | – | – | – | – | 1.22 | 1.06 | 1.05 | 0.98 | 0.84 | 1.44 | 0.94 | –
Nc1nc2[nH]cc(CCc3ccc(C(=O)N[C@@H](CCC(=O)O)C(=O)O)cc3)c2c(=O)[nH]1 [PTX, pemetrexed] | – | – | – | – | – | – | – | – | – | – | – | – | – | – | – | fold changes relative to vehicle control [1]: 1.03; fold changes relative to vehicle control [2]: 1.08; fold changes relative to vehicle control [3]: 0.99; fold changes relative to vehicle control [4]: 1.07; fold changes relative to vehicle control [5]: 0.89; fold changes relative to vehicle control [6]: 0.92; fold changes relative to vehicle control [7]: 1.22; fold changes relative to vehicle control [8]: 0.88
Nc1nc2c(c(=O)[nH]1)N(C=O)C(CNc1ccc(C(=O)N[C@@H](CCC(=O)O)C(=O)O)cc1)CN2 (some centres unmarked) [LEU, leucovorin] | – | 0.95 | – | – | – | – | – | – | 0.98 | 0.92 | 1.07 | 0.96 | 0.93 | 1.01 | 0.92 | –
